Assay results from patent US20110124692A1, “CRYSTALLINE FORMS OF THIAZOLIDINEDIONE COMPOUND AND ITS MANUFACTURING METHOD” (DAIICHI SANKYO COMPANY, LIMITED, priority 2008, published 2011).
Structures can show the parent of a compound that is named as a salt. Where two headings read alike, the source gives them in different places. Each block holds one compound with its values, some of them ahead of it.

Key:
[1] = molecular target: T1, peroxisome proliferator-activated receptor (PPAR) γ (Homo sapiens, UniProt P37231); conditions: as disclosed in Patent Documents 1-5; cited from earlier work
T1 sequence (P37231 1-505): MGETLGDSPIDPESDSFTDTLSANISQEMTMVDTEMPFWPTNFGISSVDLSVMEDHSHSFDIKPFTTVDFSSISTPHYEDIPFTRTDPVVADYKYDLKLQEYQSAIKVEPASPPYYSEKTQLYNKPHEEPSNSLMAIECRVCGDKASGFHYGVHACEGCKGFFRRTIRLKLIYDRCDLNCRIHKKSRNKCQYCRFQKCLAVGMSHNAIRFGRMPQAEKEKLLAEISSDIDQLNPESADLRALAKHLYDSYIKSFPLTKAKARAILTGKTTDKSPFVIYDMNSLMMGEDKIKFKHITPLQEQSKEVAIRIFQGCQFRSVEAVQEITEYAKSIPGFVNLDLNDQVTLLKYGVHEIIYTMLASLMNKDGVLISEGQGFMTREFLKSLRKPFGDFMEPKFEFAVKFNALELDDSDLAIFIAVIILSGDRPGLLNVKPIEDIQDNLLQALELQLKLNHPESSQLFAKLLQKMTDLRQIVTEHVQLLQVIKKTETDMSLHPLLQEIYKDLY

[2] = in vivo; cited from earlier work
[3] = Solubility in dilute hydrochloric acid (Test Example 3); format: physicochemical; conditions: for The concentration (mg/g) of 5-(4-{[6-(4-amino-3,5-dimethylphenoxy)-1-methyl-1-H-benzimidazol-2-yl]methoxy}benzyl)-1,3-thiazolidine-2,4-dione in dilute hydrochloric acid: dilute hydrochloric acid 9.6 mg/g (pH about 0.7), 25° C., 500 mg in 5 mL, sampled after 6 minutes; for Concentration in dilute hydrochloric acid compared with the other crystalline forms: comparison of Table 7
Protocol: The concentration was measured under the test conditions below.
The concentration is calculated from the following formula.

human kidney cancer = conditions: cited from earlier work
[4] = system: human colon cancer cell lines; conditions: against human colon cancer cell lines; cited from earlier work
[5] = system: human stomach cancer cells, human breast cancer cells, small cell lung cancer, pancreas cancer cells, prostate cancer cells, kidney cancer cells …; conditions: medulloblastoma, sarcoma cells, multiple myeloma; cited from earlier work
cancer cells [6] = conditions: in combination with an epidermal growth factor receptor (EGFR) inhibitor; cited from earlier work
human leukemia cells = conditions: cited from earlier work
cancer cells [7] = conditions: in combination with a VEGFR inhibitor or a Raf kinase inhibitor; cited from earlier work
[8] = system: human non-small-cell lung cancer; conditions: cited from earlier work

SMILES: Cc1cc(Oc2ccc3nc(COc4ccc(CC5SC(=O)NC5=O)cc4)n(C)c3c2)cc(C)c1N (stereo not shown) [Compound (I), 5-(4-{[6-(4-amino-3,5-dimethylphenoxy)-1-methyl-1-H-benzimidazol-2-yl]methoxy}benzyl)-1,3-thiazolidine-2,4-dione]
Ability to activate PPAR γ [1]: significant ability to activate
Activity to ameliorate insulin resistance and to reduce blood sugar [2]: significant activity to ameliorate insulin resistance and to reduce blood sugar

The concentration (mg/g) of 5-(4-{[6-(4-amino-3,5-dimethylphenoxy)-1-methyl-1-H-benzimidazol-2-yl]methoxy}benzyl)-1,3-thiazolidine-2,4-dione in dilute hydrochloric acid ([3]; dihydrochloride monohydrate): 0.325 mg/g
SMILES: Cc1cc(Oc2ccc3nc(COc4ccc(CC5SC(=O)NC5=O)cc4)n(C)c3c2)cc(C)c1N (stereo not shown) [Crystalline form A manufactured according to Example 4] [5-(4-{[6-(4-amino-3,5-dimethylphenoxy)-1-methyl-1-H-benzimidazol-2-yl]methoxy}benzyl)-1,3-thiazolidine-2,4-dione dihydrochloride monohydrate]
Concentration in dilute hydrochloric acid compared with the other crystalline forms ([3]; dihydrochloride monohydrate): highest concentration among the dihydrochloride monohydrate crystalline forms

The concentration (mg/g) of 5-(4-{[6-(4-amino-3,5-dimethylphenoxy)-1-methyl-1-H-benzimidazol-2-yl]methoxy}benzyl)-1,3-thiazolidine-2,4-dione in dilute hydrochloric acid ([3]; dihydrochloride monohydrate): 0.276 mg/g
SMILES: Cc1cc(Oc2ccc3nc(COc4ccc(CC5SC(=O)NC5=O)cc4)n(C)c3c2)cc(C)c1N (stereo not shown) [Crystalline form manufactured according to Example (2-1)] [5-(4-{[6-(4-amino-3,5-dimethylphenoxy)-1-methyl-1-H-benzimidazol-2-yl]methoxy}benzyl)-1,3-thiazolidine-2,4-dione dihydrochloride monohydrate]

SMILES: Cc1cc(Oc2ccc3nc(COc4ccc(CC5SC(=O)NC5=O)cc4)n(C)c3c2)cc(C)c1N (stereo not shown) [dihydrochloride of Compound (I), 5-(4-{[6-(4-amino-3,5-dimethylphenoxy)-1-methyl-1-H-benzimidazol-2-yl]methoxy}benzyl)-1,3-thiazolidine-2,4-dione dihydrochloride]
Antitumor activity (human kidney cancer; alone): has antitumor activity
Antitumor activity in combination (human kidney cancer; in combination with a VEGFR inhibitor or a Raf kinase inhibitor): enhanced antitumor activity
Antitumor activity in vivo [4]: significant antitumor activity in vivo
Activity to inhibit the growth of cancer cells [5]: significant activity to inhibit the growth
Activity to inhibit the growth of cancer cells in combination (cancer cells [6]): synergistic activity to inhibit the growth of cancer cells
Growth inhibition of human leukemia cells (human leukemia cells): significantly inhibits the growth-inhibiting activity
Activity to inhibit the growth of cancer cells in combination (cancer cells [7]): synergistic activity to inhibit the growth of cancer cells
Antitumor activity ([8]; alone): has antitumor activity
Antitumor activity in combination ([8]; in combination with an EGFR inhibitor): enhanced antitumor activity

The concentration (mg/g) of 5-(4-{[6-(4-amino-3,5-dimethylphenoxy)-1-methyl-1-H-benzimidazol-2-yl]methoxy}benzyl)-1,3-thiazolidine-2,4-dione in dilute hydrochloric acid ([3]; monohydrate): 0.579 mg/g
SMILES: Cc1cc(Oc2ccc3nc(COc4ccc(CC5SC(=O)NC5=O)cc4)n(C)c3c2)cc(C)c1N (stereo not shown) [5-(4-{[6-(4-amino-3,5-dimethylphenoxy)-1-methyl-1-H-benzimidazol-2-yl]methoxy}benzyl)-1,3-thiazolidine-2,4-dione monohydrate]
Concentration in dilute hydrochloric acid compared with the other crystalline forms ([3]; listed as free-form crystalline form, monohydrate): higher concentration than all the dihydrochloride monohydrate crystalline forms
